According to patent US11389456B2, “Compounds and methods for treating oxalate-related diseases” (OxaluRx, Inc., priority 2018, dated 2022):

Assays:
[1] = test system: CD1 mice administered 1% ethylene glycol; assay: Mouse ethylene glycol model of hyperoxaluria, urinary oxalate; format: in vivo; conditions: CD-1 mice, twice-daily oral gavage 50 mg/kg
Description: Mouse Models of Hyperoxaluria for Determining In Vivo Efficacy of hGOX Inhibitors
Male CD1 mice, 6-8 weeks of age (Charles River Labs, Wilmington, Mass.) were administered 1% ethylene glycol ad libitum their drinking water for 14 days. The mice were housed in individual cages, fed ad libitum and 24-h urine collections were initiated on days 1, 5, 9 and 14 using a 15-rack metabolic cage system equipped with a CCS2000 chiller system (Hatteras Instruments, Cary, N.C.) to maintain the samples at 4° C. during collection. Hydrochloric acid (100 μL of 6N) added to the collection vials to acidify the samples and prevent degradation of oxalate before evaluation.
Urine samples were maintained at 4° C. and urinary oxalate concentrations were determined within 24 hours of sample collection using a Trinity Biotech oxalate assay kit (Catalog #591-D). The assay was an enzymatic method based on the oxidation of oxalate by oxalate oxidase followed by measurement of hydrogen peroxide (H2O2) produced during the peroxidase-catalyzed reaction. Briefly, a 1-mL aliquot of each sample was diluted with an equal volume of assay diluent to bring the pH to between 5.0 and 7.0, then placed into purifier tubes (provided in the kit) and mixed for 5 min. The tubes were centrifuged for 5 min at 2000 rpm (1500×g) and the supernatants collected for the oxalate assay. The procedure was specific for oxalate with no special equipment and was easily adaptable for clinical automated analyzers. Each assay included a standard curve prepared with a standardized oxalate control sample (included in the kit) and internal assay control samples for both a normal (0.2-0.3 mmol/L) and elevated (0.86-1.21 mmol/L) level of oxalate.
To evaluate in vivo efficacy, mice were dosed by once-daily oral gavage of compound I-002 in an appropriate vehicle (e.g., phosphate-buffered saline, pH 7.4) at a dosage of 100 mg/kg. […]
The effect of example I-001 in the ethylene glycol model using CD-1 mice was evaluated by twice-daily, oral gavage dosing at 50 mg/kg for 6 days (days 5-11). […]

[2] = Metabolic stability in human liver microsomal preparation; format: in vitro ADME; conditions: pH 7.4, human liver microsomes, NADPH, 37° C.
Procedure, shortened: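 Compound at 1.5 μM with 0.75 mg/mL human liver microsomes (concentrations before NADPH addition) in 0.1 M potassium phosphate, 1 mM EDTA, pH 7.4 was preincubated 5 min at 37 °C, then started with NADPH. Samples at 0, 5, 15, 30 and 45 min were quenched with acetonitrile/internal standard and analysed by LC/MS.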

[3] = target: glycolate oxidase (GOX) in HepaRG-CAR cells (Homo sapiens (Human), UniProt Q9UJM8); assay: HepaRG-CAR cell-based assay for quantitation of glycolate oxidase inhibition (cellular glycolate flux, GC-MS); conditions: HepaRG-CAR cells, 500 μM glycolate, 48 hours incubation; read-out: IC50
[4] = Stability in human plasma; format: in vitro ADME; conditions: read-out: Plasma Stability T1/2
Procedure, shortened: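 Pooled human plasma (pH 7.4-8) at 37° C, test compound spiked from a 0.02 mM solution in phosphate buffer with 0.5% BSA. Samples taken at 0, 5, 15, 30, 45 and 60 min, quenched with acetonitrile containing internal standard, and remaining compound measured by LC/MS.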

[5] = target: recombinant full-length human hydroxyacid oxidase 1 (HAO1), the equivalent of hGOX (Homo sapiens (Human), UniProt Q9UJM8); assay: In-vitro human glycolate oxidase (hGOX) assay (Amplex red/HRP fluorescence); format: biochemical
Chain of recombinant full-length human hydroxyacid oxidase 1 (HAO1), the equivalent of hGOX (Q9UJM8 whole entry): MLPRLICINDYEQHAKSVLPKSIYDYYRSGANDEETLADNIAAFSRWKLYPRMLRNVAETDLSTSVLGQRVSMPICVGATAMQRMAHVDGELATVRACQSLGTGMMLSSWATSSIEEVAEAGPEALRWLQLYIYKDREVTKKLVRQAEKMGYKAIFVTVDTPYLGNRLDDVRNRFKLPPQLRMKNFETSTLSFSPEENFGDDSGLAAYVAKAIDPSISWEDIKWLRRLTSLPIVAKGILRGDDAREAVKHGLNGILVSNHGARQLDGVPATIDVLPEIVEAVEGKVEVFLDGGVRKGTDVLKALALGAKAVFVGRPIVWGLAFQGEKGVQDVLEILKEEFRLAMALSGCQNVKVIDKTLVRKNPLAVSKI
Description: Biological Activity Assay: In-Vitro Human Glycolate Oxidase (hGOX) Assay
The in-vitro glycolate oxidase assay was performed using recombinant full-length human hydroxyacid oxidase 1 (HAO1), the equivalent of hGOX. […] Purified HAO1 was dissolved in assay buffer consisting of 10 mM NaCl, 110 mM KCl, 2 mM MgCl2, 50 mM HEPES (pH 7.4) and 0.01% Triton™ X-100.

Chain of glycolate oxidase (GOX) in HepaRG-CAR cells (Q9UJM8 whole entry): as above

Q: Which results are given for `O=C(O)c1nn[nH]c1Sc1ccc(Cl)cc1` [Example I-001, 5-((4-chlorophenyl)thio)-1H-1,2,3-triazole-4-carboxylic acid]?
A: decrease of total urinary oxalate values (μmole/24 hr/mL) ([1]; 24-hour urine collection after 3 days of drug treatment): 24%; decrease of total urinary oxalate values (μmole/24 hr/mL) ([1]; 24-hour urine collection after 6 days of drug treatment): 32%; CLint scaled at 1 μM [2]: 1.19 mL/min/kg; half-life at 1 μM ([2]; 0-45 min, read-out: Metabolic Stability t1/2): 24.3 h; IC50 [3]: 1000 nM; half-life at 2 μM [4]: 0.706 h; IC50 [5]: 110 nM
